{"source": "patent US12550923B2", "about": "“Allulose syrups” (Tate & Lyle Solutions USA LLC, priority 2015, dated 2026)", "assay": "Crystallization stability of seeded allulose syrups", "assay_type": "physicochemical", "details": "25° C.", "description": "Allulose syrups were prepared at 50, 60, 71, 77, and 85% DS and were equilibrated at 25° C., 15° C. and 4° C. These samples were seeded with ˜0.1% crystalline allulose and crystallization was monitored visually and by change in dry solids of the syrup fraction after 1 month of storage.\nA change in DS greater than 0 indicates crystallization, and a larger number indicates a larger amount of crystallization. […] Therefore, for storage of a crystallization stable syrup at ambient and reduced temperatures, 77% solids or less is desirable. For cool (<25° C.) temperatures, 71% solids or less is more desirable.", "data": [{"smiles": "O=C(CO)C(O)C(O)C(O)CO", "note": "(stereo not shown) [allulose]", "values": [{"measurement": "limit of solubility (DS)", "result": "~77", "unit": "%"}]}]}
